# Source: patent US11566007B2, “Ras inhibitors” (Revolution Medicines, Inc., priority 2019, dated 2023)
# Read-outs that look alike come from different tables or passages of the source.
# Key:
# [1] = test system: NCI-H358 cells (K-Ras G12C); experiment: Potency assay: pERK in NCI-H358 cells; type: cell-based, human
# Description: The purpose of this assay is to measure the ability of test compounds to inhibit K-Ras in cells. […] This procedure measures a decrease in cellular pERK in response to test compounds.
# NCI-H358 cells were grown and maintained using media and procedures recommended by the ATCC. On the day prior to compound addition, cells were plated in 384-well cell culture plates (40 μl/well) and grown overnight in a 37° C., 5% CO2 incubator. Test compounds were prepared in 10, 3-fold dilutions in DMSO, with a high concentration of 10 mM. On the day of assay, 40 nL of test compound was added to each well of cell culture plate using an Echo550 liquid handler (LabCyte®). Concentrations of test compound were tested in duplicate. After compound addition, cells were incubated 4 hours at 37° C., 5% CO2. Following incubation, culture medium was removed and cells were washed once with phosphate buffered saline.
# In some experiments, cellular pERK level was determined using the AlphaLISA SureFire Ultra p-ERK1/2 Assay Kit (PerkinElmer). Cells were lysed in 25 μL lysis buffer, with shaking at 600 RPM at room temperature. […] After a 2-hour incubation in the dark, 5 μL donor mix was added, plate was sealed, and incubated 2 hours at room temperature. Signal was read on an Envision plate reader (PerkinElmer) using standard AlphaLISA settings. Analysis of raw data was carried out in Excel (Microsoft) and Prism (GraphPad). Signal was plotted vs. the decadal logarithm of compound concentration, and IC50 was determined by fitting a 4-parameter sigmoidal concentration response model.
# In other experiments, cellular pERK was determined by In-Cell Western. […] Fixed cells were washed 4 times for 5 minutes with TBS containing 0.1% Triton X-100 (TBST) and then blocked with 100 μL Odyssey blocking buffer (LI-COR) for 60 minutes at room temperature. […] Cells were washed 4 times for 5 minutes with TBST. Secondary antibody (IR-800CW rabbit, LI-COR, diluted 1:800) and DNA stain DRAQS (LI-COR, diluted 1:2000) were added and incubated 1-2 hours at room temperature. Cells were washed 4 times for 5 minutes with TBST. Plates were scanned on a Li-COR Odyssey CLx Imager. Analysis of raw data was carried out in Excel (Microsoft) and Prism (Graph Pad). Signal was plotted vs. the decadal logarithm of compound concentration, and IC50 was determined by fitting a 4-parameter sigmoidal concentration response model.
# NCI-H358 (K-Ras G12C) = experiment: CellTiter-Glo cell viability assay, NCI-H358; type: cell-based, human; conditions: NCI-H358, 5-day treatment, class symbols, read-out: Additional H358 Cell Viability assay data (K-Ras G12C, IC50)
# Description: Note—The following protocol describes a procedure for monitoring cell viability of K-Ras mutant cancer cell lines in response to a compound of the invention. Other RAS isoforms may be employed, though the number of cells to be seeded will vary based on cell line used.
# Test compounds (132.5 nL) were directly dispensed into the assay plates containing cells. […] On day 5, assay plates and their contents were equilibrated to room temperature for approximately 30 minutes. […] Luminescence was measured using the PerkinElmer Enspire. Data were normalized by the following: (Sample signal/Avg. DMSO)*100. The data were fit using a four-parameter logistic fit.
# KRAS G12S = KRAS G12S (Homo sapiens (Human), UniProt P01116+P62937, G12S); experiment: Ras-Raf (BRAF RBD) disruption / FRET / MOA assay, KRAS G12S; type: biochemical; conditions: Ras-Raf disruption/FRET/MOA assay; class symbols; read-out: KRAS G12S FRET data IC50
# Chain of KRAS G12S (P01116-2 other isoform, or with tags, fused parts or gaps G12S): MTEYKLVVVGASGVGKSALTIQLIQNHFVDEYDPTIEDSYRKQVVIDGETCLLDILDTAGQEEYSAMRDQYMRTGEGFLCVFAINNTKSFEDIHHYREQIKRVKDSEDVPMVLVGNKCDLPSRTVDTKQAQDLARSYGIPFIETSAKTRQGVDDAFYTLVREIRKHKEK
# Chain of KRAS G12S (P62937 whole entry, canonical isoform): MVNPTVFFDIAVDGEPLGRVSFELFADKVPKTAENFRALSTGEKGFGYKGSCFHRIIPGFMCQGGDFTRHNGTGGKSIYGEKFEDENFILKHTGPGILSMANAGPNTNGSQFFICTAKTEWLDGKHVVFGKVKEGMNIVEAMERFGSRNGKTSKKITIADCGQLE
# Description: (§1) The purpose of this biochemical assay is to measure the ability of test compounds to facilitate ternary complex formation between a nucleotide-loaded Ras isoform and cyclophilin A; the resulting ternary complex disrupts binding to a BRAF^RBD construct, inhibiting Ras signaling through a RAF effector.
# (§2) Compound is present in plate wells as a 10-point 3-fold dilution series starting at a final concentration of 30 μM. After incubation at 25° C. for 3 hours, a mixture of Anti-His Eu-W1024 and anti-GST allophycocyanin is then added to assay sample wells at final concentrations of 10 nM and 50 nM, respectively, and the reaction incubated for an additional 1.5 hours. […] Compounds that facilitate disruption of a Ras:RAF complex are identified as those eliciting a decrease in the TR-FRET ratio relative to DMSO control wells.
# (§3) This protocol may also be executed substituting other Ras proteins or nucleotides.
# (§4) The purpose of this biochemical assay was to measure the ability of test compounds to facilitate ternary complex formation between a nucleotide-loaded K-Ras isoform and Cyclophilin A; the resulting ternary complex disrupts binding to a BRAF^RBD construct, inhibiting K-Ras signaling through a RAF effector. Data is reported as IC50 values.
# as §2, with “Compound was” for “Compound is”, “allophycocyanin was” for “allophycocyanin is”, “a K-Ras:RAF” for “a Ras:RAF”, “complex were” for “complex are”
# KRAS G12D = KRAS G12D (Homo sapiens (Human), UniProt P01116+P62937, G12D); experiment: Ras-Raf (BRAF RBD) disruption / FRET / MOA assay, KRAS G12D; type: biochemical; conditions: Ras-Raf disruption/FRET/MOA assay; class symbols; read-out: KRAS G12D FRET data IC50
# Chain of KRAS G12D (P01116-2 other isoform, or with tags, fused parts or gaps G12D): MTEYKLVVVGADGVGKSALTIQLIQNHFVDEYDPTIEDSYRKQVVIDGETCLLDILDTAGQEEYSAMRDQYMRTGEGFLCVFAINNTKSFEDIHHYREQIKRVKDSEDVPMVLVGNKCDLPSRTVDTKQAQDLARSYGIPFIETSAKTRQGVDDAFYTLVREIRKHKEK
# Chain of KRAS G12D (P62937 whole entry): as the sequence (P62937 whole entry, canonical isoform) above
# Description: as §1, §2, §3, §4
# as §2, with “Compound was” for “Compound is”, “allophycocyanin was” for “allophycocyanin is”, “a K-Ras:RAF” for “a Ras:RAF”, “complex were” for “complex are”
# [2] = Homo sapiens, NCI-H358, H358 KRAS G12C, read-out: pERK EC50
# [3] = H358 KRAS G12C, read-out: pERK EC50
structure (smiles),measurement,setting,value
"C=CC(=O)N1CC[C@H](C(=O)N(C)[C@H](C(=O)N[C@H]2Cc3cccc(c3)-c3ccc4c(c3)c(c(-c3ccccc3CCOC)n4CC)CC(C)(C)COC(=O)[C@@H]3CCCN(N3)C2=O)C(C)C)C1 (atropisomer, axis not shown) [Example A24]",EC50,[1]; [2],< 5 µM
same,IC50,"NCI-H358 (K-Ras G12C); Homo sapiens, NCI-H358, 120 h",> 1 µM
"C=CC(=O)N1CC[C@H](C(=O)N(C)[C@H](C(=O)N[C@H]2Cc3cc(O)cc(c3)-c3cc(F)c4c(c3)c(c(-c3ccccc3CCOC)n4CC)CC(C)(C)COC(=O)[C@@H]3CCCN(N3)C2=O)C(C)C)C1 (atropisomer, axis not shown) [Example A53]",EC50,[1]; [2],< 5 µM
same,IC50,"NCI-H358 (K-Ras G12C); Homo sapiens, NCI-H358, 120 h",0.1 to 1 µM
"CC#CC(=O)N1CC[C@H](C(=O)N(C)[C@@H](C(=O)N[C@H]2Cc3cc(O)cc(c3)-c3ccc4c(c3)c(c(-c3cccnc3[C@H](C)OC)n4CC)CC(C)(C)COC(=O)[C@@H]3CCCN(N3)C2=O)C(C)C)C1 (atropisomer, axis not shown) [Example A198]",IC50,NCI-H358 (K-Ras G12C),> 1 µM
"CC#CC(=O)N1CC[C@H](C(=O)N(C)[C@@H](C(=O)N[C@H]2Cc3cc(O)cc(c3)-c3ccc4c(c3)c(c(-c3cccnc3[C@H](C)OC)n4CC)CC(C)(C)COC(=O)[C@@H]3CCCN(N3)C2=O)C(C)C)C1 (atropisomer, axis not shown) [Example A199]",EC50,[1]; [3],< 5 µM
same,IC50,NCI-H358 (K-Ras G12C),0.1 to 1 µM
"CC#CC(=O)N1CC[C@H](C(=O)N(C)[C@H](C(=O)N[C@H]2Cc3cc(O)cc(c3)-c3ccc4c(c3)c(c(-c3cccnc3[C@H](C)OC)n4CC)CC(C)(C)COC(=O)[C@@H]3CCCN(N3)C2=O)C(C)C)C1 (atropisomer, axis not shown; (M)) [Example A145, (2S)-2-{1-[(3S)-1-(but-2-ynoyl)pyrrolidin-3-yl]-N-methylformamido}-N-[(8S,14S,20M)-22-ethyl-4-hydroxy-21-{2-[(1S)-1-methoxyethyl]pyridin-3-yl}-18,18-dimethyl-9,15-dioxo-16-oxa-10,22,28-triazapentacyclo[18.5.2.1^2,^6.1^10,^14.0^23,^27]nonacosa-1(26),2,4,6(29),20,23(27),24-heptaen-8-yl]-3-methylbutanamide]",EC50,[1]; [3],< 5 µM
C=CC(=O)N1CC[C@H](C(=O)N(C)[C@H](C(=O)N[C@H]2Cc3cc(O)cc(c3)-c3ccc4c(c3)c(c(-c3ccccc3CO)n4CC)CC(C)(C)COC(=O)[C@@H]3CCCN(N3)C2=O)C(C)C)C1 [Example A4],EC50,[1]; [2],< 5 µM
C=CC(=O)N1CC[C@H](C(=O)N(C)[C@H](C(=O)N[C@H]2Cc3cc(O)cc(c3)-c3ccc4c(c3)c(c(-c3ccccc3CCOC)n4C(C)(C)C#N)CC(C)(C)COC(=O)[C@@H]3CCCN(N3)C2=O)C(C)C)C1 [Example A12],EC50,[1]; [2],< 5 µM
CCn1c(-c2ccccc2CCOC)c2c3cc(ccc31)-c1cc(O)cc(c1)C[C@H](NC(=O)[C@H](C(C)C)N(C)C(=O)[C@H]1CCN(C(=O)/C=C/CN(C)C)C1)C(=O)N1CCC[C@H](N1)C(=O)OCC(C)(C)C2 [Example A15],EC50,[1]; [2],< 5 µM
C=CC(=O)N1CC[C@H](C(=O)N(C)[C@H](C(=O)N[C@H]2Cc3cc(OC(=O)CCC(=O)O)cc(c3)-c3ccc4c(c3)c(c(-c3ccccc3CCOC)n4CC)CC(C)(C)COC(=O)[C@@H]3CCCN(N3)C2=O)C(C)C)C1 [Example A32],EC50,[1]; [2],< 5 µM
C=CC(=O)N1CC[C@H](C(=O)N(C)[C@H](C(=O)N[C@H]2Cc3cc(O)cc(c3)-c3ccc4c(c3)c(c(-c3ccccc3CCOC)n4C(C)(C)C#N)CC(C)(C)COC(=O)[C@@H]3CCCN(N3)C2=O)C(C)C)C1 [Example A34],EC50,[1]; [3],< 5 µM
C=CC(=O)N1CCN(C(=O)N(C)[C@H](C(=O)N[C@H]2Cc3cc(O)cc(c3)-c3ccc4c(c3)c(c(-c3ccccc3CN(C)C)n4CC)CC(C)(C)COC(=O)[C@@H]3CCCN(N3)C2=O)C(C)C)CC1 [Example A37],EC50,[1]; [2],< 5 µM
C=CC(=O)N1CC[C@H](C(=O)N(C)[C@H](C(=O)N[C@H]2Cc3cc(O)cc(c3)-c3ccc4c(c3)c(c(-c3ccncc3CCOC)n4CC)CC(C)(C)COC(=O)[C@@H]3CCCN(N3)C2=O)C(C)C)C1 [Example A48],EC50,[1]; [2],< 5 µM
CCn1c(-c2ccccc2CN(C)C)c2c3cc(ccc31)-c1cc(O)cc(c1)C[C@H](NC(=O)[C@H](C(C)C)N(C)C(=O)c1ccc(NC(=O)/C=C/CN(C)C)cc1)C(=O)N1CCC[C@H](N1)C(=O)OCC(C)(C)C2 [Example A49],IC50,"NCI-H358 (K-Ras G12C); Homo sapiens, NCI-H358, 120 h",> 1 µM
CCn1c(-c2cccnc2COC)c2c3cc(ccc31)-c1cc(O)cc(c1)C[C@H](NC(=O)[C@H](C(C)C)N(C)C(=O)[C@H]1CCN(C(=O)/C=C/CN3CCN(C)CC3)C1)C(=O)N1CCC[C@H](N1)C(=O)OCC(C)(C)C2 [Example A72],IC50,"NCI-H358 (K-Ras G12C); Homo sapiens, NCI-H358, 120 h",> 1 µM
C=CC(=O)N1CC[C@H](C(=O)N(C)[C@H](C(=O)N[C@H]2Cc3cc(O)cc(c3)-c3ccc4c(c3)c(c(-c3cccnc3)n4C(C)(C)C#N)CC(C)(C)COC(=O)[C@@H]3CCCN(N3)C2=O)C(C)C)C1 [Example A74],EC50,[1]; [3],< 5 µM
C=CC(=O)N1CC[C@H](C(=O)N(C)[C@H](C(=O)N[C@H]2Cc3cc(O)cc(c3)-c3ccc4c(c3)c(c(-c3cnccc3[C@H](C)OC)n4CC)CC(C)(C)COC(=O)[C@@H]3CCCN(N3)C2=O)C(C)C)C1 [Example A76],EC50,[1]; [3],< 5 µM
C=CC(=O)N1CC[C@H](C(=O)N(C)[C@H](C(=O)N[C@H]2Cc3cc(OC(=O)N(C)CC(=O)O)cc(c3)-c3ccc4c(c3)c(c(-c3ccccc3CCOC)n4CC)CC(C)(C)COC(=O)[C@@H]3CCCN(N3)C2=O)C(C)C)C1 [Example A78],EC50,"[1]; Homo sapiens, NCI-H358, read-out: pERK EC50",< 5 µM
C=CC(=O)N1CC[C@H](C(=O)N(C)[C@H](C(=O)N[C@H]2Cc3cc(O)cc(c3)-c3ccc4c(c3)c(c(-c3cncc(CCN(C)C)c3)n4CC)CC(C)(C)COC(=O)[C@@H]3CCCN(N3)C2=O)C(C)C)C1 [Example A81],EC50,[1]; [2],< 5 µM
CCn1c(-c2cnccc2COC)c2c3cc(ccc31)-c1cc(O)cc(c1)C[C@H](NC(=O)[C@H](C(C)C)N(C)C(=O)[C@H]1CCN(C(=O)C#CCN(C)C)C1)C(=O)N1CCC[C@H](N1)C(=O)OCC(C)(C)C2 [Example A88],EC50,[1]; [2],< 5 µM
CCn1c(-c2ccccc2CN(C)C)c2c3cc(ccc31)-c1cc(O)cc(c1)C[C@H](NC(=O)[C@H](C(C)C)N(C)C(=O)c1nc(NC(=O)/C=C/CN(C)C)cs1)C(=O)N1CCC[C@H](N1)C(=O)OCC(C)(C)C2 [Example A90],IC50,"NCI-H358 (K-Ras G12C); Homo sapiens, NCI-H358, 120 h",> 1 µM
C=CC(=O)N1CC[C@H](C(=O)N(C)[C@H](C(=O)NC2C[C@@H]3CN(CCO3)c3ccc4c(c3)c(c(-c3cccnc3COC)n4CC)CC(C)(C)COC(=O)[C@@H]3CCCN(N3)C2=O)C(C)C)C1 (some centres unmarked) [Example A318],IC50,NCI-H358 (K-Ras G12C),> 1 µM
same,IC50,KRAS G12S,> 10 µM
same,IC50,KRAS G12D,> 10 µM
